Assay results reported in US20260242395A1, “AMINOHETEROARYL KINASE INHIBITORS” (ALLORION THERAPEUTICS INC, priority 2022, published 2026).

Experiments:
Assay type in all cases: biochemical
CDK6/CyclinD3 = target: T1, CDK6/CyclinD3 (Homo sapiens, UniProt Q00534); assay: CDK6/CyclinD3 kinase inhibitory activity (Caliper mobility shift); details: enzyme 15 nM, ATP 800 μM, 28° C. 30 min; read-out: CDK6/Cyclin D3 IC50
T1 construct: purchased Carna 04-107
Procedure, shortened: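 Compound preincubated 10 min at room temperature with CDK6/CyclinD3 (15 nM final) in HEPES pH 7.5/MgCl2/DTT buffer; reaction with 5-FAM peptide (3000 nM) and ATP 800 μM, 30 min at 28°C, stopped with EDTA. Substrate/product separated by microfluidic mobility shift; % conversion converted to % inhibition, IC50 from dose-response curves.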

CDK4/CyclinD1 = target: T2, CDK4/CyclinD1 (Homo sapiens, UniProt P11802); assay: CDK4/CyclinD1 kinase inhibitory activity (Caliper mobility shift); details: enzyme 20 nM, ATP 672 uM, 28° C. 30 min; read-out: CDK4/Cyclin D1 IC50
T2 construct: purchased ProQinase 0142-0143-1
T2 sequence (P11802 whole entry): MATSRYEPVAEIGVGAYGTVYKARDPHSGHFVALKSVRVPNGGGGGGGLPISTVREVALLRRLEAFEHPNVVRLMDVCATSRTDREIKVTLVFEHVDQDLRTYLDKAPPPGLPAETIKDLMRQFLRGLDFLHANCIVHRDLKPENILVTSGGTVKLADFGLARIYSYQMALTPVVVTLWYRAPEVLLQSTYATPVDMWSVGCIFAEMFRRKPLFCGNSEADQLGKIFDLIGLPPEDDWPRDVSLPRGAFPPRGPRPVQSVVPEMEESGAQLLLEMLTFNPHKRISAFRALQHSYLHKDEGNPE
T2 sequence (P24385 whole entry partner): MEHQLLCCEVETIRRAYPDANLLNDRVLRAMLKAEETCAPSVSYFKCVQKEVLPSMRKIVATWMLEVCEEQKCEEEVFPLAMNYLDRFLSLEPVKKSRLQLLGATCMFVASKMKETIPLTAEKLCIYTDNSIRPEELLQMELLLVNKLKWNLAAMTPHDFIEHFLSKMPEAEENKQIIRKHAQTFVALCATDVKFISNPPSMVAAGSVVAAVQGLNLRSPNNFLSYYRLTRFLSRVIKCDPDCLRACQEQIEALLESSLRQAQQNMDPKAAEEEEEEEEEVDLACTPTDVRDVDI
Procedure, shortened: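 Recombinant CDK4/Cyclin D1 (20 nM final) preincubated 10 min at room temperature with compound in HEPES pH 7.5 buffer with MgCl2, DTT and Triton X-100. Reaction started with 3000 nM FAM-labelled peptide and 672 uM ATP, run 30 min at 28° C, stopped with EDTA. Mobility-shift % conversion gave % inhibition, and IC50 came from dose-response fits.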

CDK9/CyclinT1 = target: T3, CDK9/CyclinT1 (Homo sapiens, UniProt P50750); assay: CDK9/CyclinT1 kinase inhibitory activity (Caliper mobility shift); details: enzyme 12.5 nM, ATP 10M, 28° C. 30 min; read-out: CDK9/Cyclin T1 IC50
T3 construct: purchased Millipore 14-685M
T3 sequence (P50750 whole entry): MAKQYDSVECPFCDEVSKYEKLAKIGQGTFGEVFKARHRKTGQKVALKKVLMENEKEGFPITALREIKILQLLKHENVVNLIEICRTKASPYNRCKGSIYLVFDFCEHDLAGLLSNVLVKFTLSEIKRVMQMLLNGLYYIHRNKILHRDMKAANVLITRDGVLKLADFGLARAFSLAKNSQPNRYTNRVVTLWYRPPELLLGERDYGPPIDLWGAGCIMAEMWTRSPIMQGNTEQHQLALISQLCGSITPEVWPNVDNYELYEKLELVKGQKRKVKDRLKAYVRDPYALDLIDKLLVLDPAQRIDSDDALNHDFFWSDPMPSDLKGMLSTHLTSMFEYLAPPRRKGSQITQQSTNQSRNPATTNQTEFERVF
T3 sequence (O60563 whole entry partner): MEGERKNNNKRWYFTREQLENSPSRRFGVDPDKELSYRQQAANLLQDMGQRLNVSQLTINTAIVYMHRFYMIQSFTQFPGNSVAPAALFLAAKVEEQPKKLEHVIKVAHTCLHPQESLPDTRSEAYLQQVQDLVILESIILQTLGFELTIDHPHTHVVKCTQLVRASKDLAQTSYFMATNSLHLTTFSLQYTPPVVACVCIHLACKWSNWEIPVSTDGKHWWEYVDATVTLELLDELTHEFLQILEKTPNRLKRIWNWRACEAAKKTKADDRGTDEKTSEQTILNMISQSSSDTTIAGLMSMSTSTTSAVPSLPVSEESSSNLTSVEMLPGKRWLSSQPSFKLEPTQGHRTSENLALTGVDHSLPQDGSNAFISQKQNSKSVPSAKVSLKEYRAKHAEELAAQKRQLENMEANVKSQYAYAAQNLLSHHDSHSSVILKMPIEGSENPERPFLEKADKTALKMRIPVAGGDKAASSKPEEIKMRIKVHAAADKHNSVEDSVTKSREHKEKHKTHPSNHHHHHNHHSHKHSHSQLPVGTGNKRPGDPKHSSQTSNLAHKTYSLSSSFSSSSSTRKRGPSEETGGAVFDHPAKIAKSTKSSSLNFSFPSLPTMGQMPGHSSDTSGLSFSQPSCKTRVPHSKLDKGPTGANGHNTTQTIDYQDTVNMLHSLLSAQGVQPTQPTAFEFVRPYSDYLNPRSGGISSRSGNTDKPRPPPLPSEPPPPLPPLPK
Method: CDK9/CyclinT1 kinase inhibitory activity (IC50): 5 μl of various dilutions of test compound in 1× kinase buffer (20 mM HEPES, pH 7.5, 10 mM MgCl2, 2 mM DTT and 0.01% Triton X-100) was mixed with 10 μL of CDK9/CyclinT1 (Millipore, 14-685M #, final concentration 12.5 nM in 1× Kinase buffer) in 384 plates and incubated at room temperature for 10 min. To initiate each reaction, 10 μL of peptide solution containing fluorescently-labeled -peptide CTD3 (5-FAM-[…], GL, SY346885 #, final concentration 3000 nM) and ATP (final concentration […]) in 1× Kinase buffer was added to each of the wells containing test compound and CDK9/CyclinT1 mixture. The reaction is then allowed to proceed at 28° C. for 30 min and terminated by the addition of 25 μL stop buffer (100 mM HEPES pH 7.5, 50 mM EDTA, 0.2% Coating Reagent #3 (Perkin Elmer, 760050 #) and 0.015% Brij-35).
Following the kinase reaction, Caliper EZ reader II (Downstream voltages: −500V, Upstream voltages: −2250V, Base pressure −0.5 PSI, Screen pressure −1.2 PSI) was used to separate the phosphorylated (product) and the unphosphorylated (substrate) fluorescently-labeled peptide CTD3 based on their different mobility. Both substrate and product were measured and the ratio of these values were used to generate % conversion by Caliper EZ reader II. These conversion values were then transformed into % inhibition of kinase activity using the formula: % Inhibition=[(MA−X)/(MA−MI)]×100% where MA=conversion value of DMSO only controls, MI=conversion value of no enzyme controls and X=conversion value at any given compound dose. IC50 values were then calculated by plotting dose-response curves and then using the XLfit application in Excel software.

T1 sequence (Q00534 whole entry): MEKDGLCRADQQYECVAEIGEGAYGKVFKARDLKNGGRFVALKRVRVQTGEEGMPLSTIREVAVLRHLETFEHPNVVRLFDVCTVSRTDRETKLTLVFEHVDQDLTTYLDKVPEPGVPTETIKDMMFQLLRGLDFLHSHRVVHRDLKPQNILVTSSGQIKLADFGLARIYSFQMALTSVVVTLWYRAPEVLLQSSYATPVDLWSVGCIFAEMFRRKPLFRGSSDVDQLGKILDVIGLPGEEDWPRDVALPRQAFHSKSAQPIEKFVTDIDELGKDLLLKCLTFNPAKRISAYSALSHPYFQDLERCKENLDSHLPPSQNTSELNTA
T1 sequence (P30281 whole entry partner): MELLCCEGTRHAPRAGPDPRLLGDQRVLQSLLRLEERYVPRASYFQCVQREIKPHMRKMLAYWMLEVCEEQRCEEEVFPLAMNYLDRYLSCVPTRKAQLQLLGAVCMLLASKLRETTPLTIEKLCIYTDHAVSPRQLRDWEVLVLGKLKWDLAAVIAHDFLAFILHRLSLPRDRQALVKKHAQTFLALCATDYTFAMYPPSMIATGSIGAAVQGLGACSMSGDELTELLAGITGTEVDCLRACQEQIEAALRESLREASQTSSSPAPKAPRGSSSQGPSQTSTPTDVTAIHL

| IC50 (CDK6/CyclinD3) | IC50 (CDK4/CyclinD1) | IC50 (CDK9/CyclinT1) | SMILES |
| --- | --- | --- | --- |
| 0.1 to 1 µM | < 0.01 µM | 0.1 to 1 µM | CNC(C)c1cnc2c(F)cc(-c3nc(N[C@@H]4CCOC[C@H]4O)ncc3Cl)cc2c1 (single isomer, unassigned) [Example 32a] |
| 0.01 to 0.1 µM | < 0.01 µM | 0.01 to 0.1 µM | CC1Cc2cnc3c(F)cc(-c4nc(N[C@@H]5CCOC[C@H]5O)ncc4Cl)cc3c2CN1 (single isomer, unassigned) [Example 34a] |
| 0.1 to 1 µM | < 0.01 µM | 0.1 to 1 µM | CC1Cc2cnc3c(F)cc(-c4nc(N[C@@H]5CCOC[C@H]5O)ncc4Cl)cc3c2CN1 (single isomer, unassigned) [Example 34b] |
| 0.01 to 0.1 µM | < 0.01 µM | 0.1 to 1 µM | Cc1nc2c(F)cc(-c3nc(N[C@@H]4CCOC[C@H]4O)ncc3Cl)cc2c(Cl)c1C(C)O (single isomer, unassigned) [Example 35a] |
| 0.1 to 1 µM | < 0.01 µM | ≥ 1 µM | Cc1nc2c(F)cc(-c3nc(N[C@@H]4CCOC[C@H]4O)ncc3Cl)cc2c(Cl)c1C(C)O (single isomer, unassigned) [Example 35b] |
| 0.1 to 1 µM | < 0.01 µM | 0.1 to 1 µM | CC(O)c1cnc2c(F)cc(-c3nc(N[C@@H]4CCOC[C@H]4O)ncc3Cl)cc2c1Cl (single isomer, unassigned) [Example 40a] |
| 0.1 to 1 µM | < 0.01 µM | 0.1 to 1 µM | CNC(C)c1cc2cc(-c3nc(N[C@@H]4CCOC[C@H]4O)ncc3Cl)cc(F)c2nc1C (single isomer, unassigned) [Example 45a] |
| 0.1 to 1 µM | < 0.01 µM | ≥ 1 µM | CNC(C)c1cc2cc(-c3nc(N[C@@H]4CCOC[C@H]4O)ncc3Cl)cc(F)c2nc1C (single isomer, unassigned) [Example 45b] |
| 0.1 to 1 µM | < 0.01 µM | 0.1 to 1 µM | Cc1nc2c(F)cc(-c3nc(N[C@@H]4CCOC[C@H]4O)ncc3Cl)cc2cc1C1CCCN1 (single isomer, unassigned) [Example 57a] |
| 0.01 to 0.1 µM | < 0.01 µM | 0.1 to 1 µM | Cc1nc2c(F)cc(-c3nc(N[C@@H]4CCOC[C@H]4O)ncc3Cl)cc2cc1C(C)NC1CC1 (single isomer, unassigned) [Example 73b] |
| 0.01 to 0.1 µM | < 0.01 µM | 0.01 to 0.1 µM | Cc1nc2c(F)cc(-c3nc(N[C@@H]4CCOC[C@H]4O)ncc3F)cc2c(C)c1C(C)O (single isomer, unassigned) [Example 81a] |
| 0.01 to 0.1 µM | < 0.01 µM | 0.1 to 1 µM | Cc1nc2c(F)cc(-c3nc(N[C@@H]4CCOC[C@H]4O)ncc3F)cc2c(C)c1C(C)O (single isomer, unassigned) [Example 81b] |
| 0.01 to 0.1 µM | < 0.01 µM | 0.1 to 1 µM | Cc1c(C(C)O)cnc2c(F)cc(-c3nc(N[C@@H]4CCOC[C@H]4O)ncc3Cl)cc12 (single isomer, unassigned) [Example 88a] |
| 0.1 to 1 µM | < 0.01 µM | ≥ 1 µM | Cc1c(C(C)NC2CC2)cnc2c(F)cc(-c3nc(N[C@@H]4CCOC[C@H]4O)ncc3Cl)cc12 (single isomer, unassigned) [Example 91b] |
| 0.01 to 0.1 µM | < 0.01 µM | 0.1 to 1 µM | CC1(C)NCc2c(cnc3c(F)cc(-c4nc(N[C@@H]5CCOC[C@H]5O)ncc4F)cc23)C1O (single isomer, unassigned) [Example 106b] |

Continued, molecule first:

| SMILES | IC50 (CDK6/CyclinD3) | IC50 (CDK4/CyclinD1) | IC50 (CDK9/CyclinT1) |
| --- | --- | --- | --- |
| Cc1nc2c(F)cc(-c3nc(N[C@@H]4CCOC[C@H]4O)ncc3Cl)cc2c(C)c1[C@@H](C)O (single isomer, unassigned) [Example 15a] | 0.01 to 0.1 µM | < 0.01 µM | 0.1 to 1 µM |
| Cc1nc2c(F)cc(-c3nc(N[C@@H]4CCOC[C@H]4O)ncc3Cl)cc2c(C)c1[C@H](C)O (single isomer, unassigned) [Example 15b] | 0.01 to 0.1 µM | < 0.01 µM | 0.1 to 1 µM |
| O[C@@H]1COCC[C@H]1Nc1ncc(Cl)c(-c2cc(F)c3ncc4c(c3c2)C2CCC(C4)N2)n1 (single isomer, unassigned) [Example 20b] | 0.1 to 1 µM | < 0.01 µM | 0.1 to 1 µM |
| CC(C)(O)c1cnc2c(F)cc(-c3nc(N[C@@H]4CCOC[C@H]4O)ncc3Cl)cc2c1 [Example 1, (3S,4R)-4-((5-chloro-4-(8-fluoro-3-(2-hydroxypropan-2-yl)quinolin-6-yl)pyrimidin-2-yl)amino)tetrahydro-2H-pyran-3-ol] | 0.1 to 1 µM | < 0.01 µM | ≥ 1 µM |
| Cc1nc2c(F)cc(-c3nc(N[C@@H]4CCOC[C@H]4O)ncc3Cl)cc2cc1C(C)(C)O [Example 5, (3S,4R)-4-((5-chloro-4-(8-fluoro-3-(2-hydroxypropan-2-yl)-2-methylquinolin-6-yl)pyrimidin-2-yl)amino)tetrahydro-2H-pyran-3-ol] | 0.1 to 1 µM | < 0.01 µM | 0.1 to 1 µM |
| Cc1c(C(C)(C)O)cnc2c(F)cc(-c3nc(N[C@@H]4CCOC[C@H]4O)ncc3Cl)cc12 [Example 7, (3S,4R)-4-((5-chloro-4-(8-fluoro-3-(2-hydroxypropan-2-yl)-4-methylquinolin-6-yl)pyrimidin-2-yl)amino)tetrahydro-2H-pyran-3-ol] | 0.01 to 0.1 µM | < 0.01 µM | 0.1 to 1 µM |
| O[C@@H]1COCC[C@H]1Nc1ncc(Cl)c(-c2cc(F)c3ncc4c(c3c2)CCNC4)n1 [Example 8, (3S,4R)-4-((5-chloro-4-(7-fluoro-1,2,3,4-tetrahydrobenzo[c][2,7]naphthyridin-9-yl)pyrimidin-2-yl)amino)tetrahydro-2H-pyran-3-ol] | 0.01 to 0.1 µM | < 0.01 µM | 0.01 to 0.1 µM |
| O[C@@H]1COCC[C@H]1Nc1ncc(Cl)c(-c2cc(F)c3ncc4c(c3c2)CNCC4)n1 [Example 9, (3S,4R)-4-((5-chloro-4-(7-fluoro-1,2,3,4-tetrahydrobenzo[c][2,6]naphthyridin-9-yl)pyrimidin-2-yl)amino)tetrahydro-2H-pyran-3-ol] | 0.1 to 1 µM | < 0.01 µM | 0.1 to 1 µM |
| CC(C)n1c(C(C)(C)O)nc2c(F)cc(-c3cc(N[C@@H]4CCOC[C@H]4O)ncc3Cl)cc21 [Example 12, (3S,4R)-4-((5-chloro-4-(4-fluoro-2-(2-hydroxypropan-2-yl)-1-isopropyl-1H-benzo[d]imidazol-6-yl)pyridin-2-yl)amino)tetrahydro-2H-pyran-3-ol] | 0.1 to 1 µM | 0.01 to 0.1 µM | 0.1 to 1 µM |
| CC(C)(N)c1cnc2c(F)cc(-c3nc(N[C@@H]4CCOC[C@H]4O)ncc3Cl)cc2c1 [Example 14, (3S,4R)-4-((4-(3-(2-aminopropan-2-yl)-8-fluoroquinolin-6-yl)-5-chloropyrimidin-2-yl)amino)tetrahydro-2H-pyran-3-ol] | 0.1 to 1 µM | < 0.01 µM | 0.1 to 1 µM |
| CC(C)(O)c1cnc2c(F)cc(-c3nc(N[C@@H]4CCOC[C@H]4O)ncc3Cl)cc2c1Cl [Example 17, (3S,4R)-4-((5-chloro-4-(4-chloro-8-fluoro-3-(2-hydroxypropan-2-yl)quinolin-6-yl)pyrimidin-2-yl)amino)tetrahydro-2H-pyran-3-ol] | 0.01 to 0.1 µM | < 0.01 µM | 0.1 to 1 µM |
| Cc1[nH]cnc1-c1cnc2c(F)cc(-c3nc(N[C@@H]4CCOC[C@H]4O)ncc3Cl)cc2c1 [Example 18, (3S,4R)-4-((5-chloro-4-(8-fluoro-3-(5-methyl-1H-imidazol-4-yl)quinolin-6-yl)pyrimidin-2-yl)amino)tetrahydro-2H-pyran-3-ol] | 0.1 to 1 µM | < 0.01 µM | ≥ 1 µM |
| O[C@@H]1COCC[C@H]1Nc1ncc(Cl)c(-c2cc(F)c3c(c2)N2CCNC[C@@H]2CO3)n1 [Example 19, (3S,4R)-4-((5-chloro-4-((R)-7-fluoro-1,2,3,4,4a,5-hexahydrobenzo[b]pyrazino[1,2-d][1,4]oxazin-9-yl)pyrimidin-2-yl)amino)tetrahydro-2H-pyran-3-ol] | 0.01 to 0.1 µM | < 0.01 µM | 0.01 to 0.1 µM |
